Counter-ions that a name gives are not always drawn. Like-named read-outs stand apart in the source and are kept apart here.

By IC50 is commonly meant the concentration at which inhibition is half-maximal.

What all share (assay type): biochemical
The target in test [1] is T1, recombinant human MAO-B (monoamine oxidase-B) (Homo sapiens, UniProt P27338).
T1 construct: purchased Sigma-Aldrich
T1 sequence (P27338 1-520): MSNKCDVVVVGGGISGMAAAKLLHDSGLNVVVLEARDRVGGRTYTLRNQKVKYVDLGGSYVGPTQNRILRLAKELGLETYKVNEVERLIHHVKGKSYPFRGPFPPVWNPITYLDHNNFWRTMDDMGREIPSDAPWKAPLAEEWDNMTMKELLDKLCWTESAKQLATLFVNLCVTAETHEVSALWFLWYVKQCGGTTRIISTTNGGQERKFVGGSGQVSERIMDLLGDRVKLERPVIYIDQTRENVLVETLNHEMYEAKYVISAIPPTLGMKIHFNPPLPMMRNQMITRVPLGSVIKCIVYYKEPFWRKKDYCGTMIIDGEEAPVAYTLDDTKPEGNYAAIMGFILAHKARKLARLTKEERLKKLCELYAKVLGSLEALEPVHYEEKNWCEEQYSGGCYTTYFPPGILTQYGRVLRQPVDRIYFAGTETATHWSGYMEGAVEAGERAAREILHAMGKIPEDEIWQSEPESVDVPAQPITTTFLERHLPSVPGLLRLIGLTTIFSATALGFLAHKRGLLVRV
Briefly: Activity evaluation on recombinant human MAO-B (Amplex Red/HRP-coupled assay, 1 mM benzylamine substrate). The following applies: read-out: Inhibitory Activity (IC50, nM) MAO-B. The procedure, abridged:
(§1)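 Each oxidase is tested with its own substrate: MAO-A with 0.5 mM tyramine, MAO-B with 1 mM benzylamine, DAO with 1 mM putrescine. After 30 min enzyme-compound preincubation at 37 °C, Amplex Red (200 uM) plus HRP (1 U/mL) reports H2O2 as fluorescence; IC50 is fitted from eight-point curves.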

The target of test [2] is T2, recombinant human MAO-A (monoamine oxidase-A) (Homo sapiens, UniProt P21397).
T2 construct: purchased Sigma-Aldrich
T2 sequence (P21397 1-527): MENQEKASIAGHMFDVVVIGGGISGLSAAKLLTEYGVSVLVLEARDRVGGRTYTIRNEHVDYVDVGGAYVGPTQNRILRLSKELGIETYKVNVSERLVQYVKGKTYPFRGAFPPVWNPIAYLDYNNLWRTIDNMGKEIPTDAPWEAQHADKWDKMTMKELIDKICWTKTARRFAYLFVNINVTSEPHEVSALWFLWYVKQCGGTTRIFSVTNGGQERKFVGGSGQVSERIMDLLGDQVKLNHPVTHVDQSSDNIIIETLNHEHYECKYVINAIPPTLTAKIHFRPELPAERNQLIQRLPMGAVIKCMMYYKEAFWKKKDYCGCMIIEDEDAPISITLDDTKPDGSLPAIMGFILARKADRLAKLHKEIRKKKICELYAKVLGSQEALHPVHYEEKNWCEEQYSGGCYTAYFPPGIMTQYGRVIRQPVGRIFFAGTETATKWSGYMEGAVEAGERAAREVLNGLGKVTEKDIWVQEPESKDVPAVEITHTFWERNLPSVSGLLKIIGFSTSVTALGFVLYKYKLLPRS
Briefly: Activity evaluation on recombinant human MAO-A (Amplex Red/HRP-coupled assay, 0.5 mM tyramine substrate). The following applies: read-out: Inhibitory Activity (IC50, nM) MAO-A. The procedure, abridged:
as §1

For a further test, the target named is T3, recombinant human VAP-1 (Homo sapiens, UniProt Q16853).
T3 construct: purchased R&D systems
T3 sequence (Q16853 1-763): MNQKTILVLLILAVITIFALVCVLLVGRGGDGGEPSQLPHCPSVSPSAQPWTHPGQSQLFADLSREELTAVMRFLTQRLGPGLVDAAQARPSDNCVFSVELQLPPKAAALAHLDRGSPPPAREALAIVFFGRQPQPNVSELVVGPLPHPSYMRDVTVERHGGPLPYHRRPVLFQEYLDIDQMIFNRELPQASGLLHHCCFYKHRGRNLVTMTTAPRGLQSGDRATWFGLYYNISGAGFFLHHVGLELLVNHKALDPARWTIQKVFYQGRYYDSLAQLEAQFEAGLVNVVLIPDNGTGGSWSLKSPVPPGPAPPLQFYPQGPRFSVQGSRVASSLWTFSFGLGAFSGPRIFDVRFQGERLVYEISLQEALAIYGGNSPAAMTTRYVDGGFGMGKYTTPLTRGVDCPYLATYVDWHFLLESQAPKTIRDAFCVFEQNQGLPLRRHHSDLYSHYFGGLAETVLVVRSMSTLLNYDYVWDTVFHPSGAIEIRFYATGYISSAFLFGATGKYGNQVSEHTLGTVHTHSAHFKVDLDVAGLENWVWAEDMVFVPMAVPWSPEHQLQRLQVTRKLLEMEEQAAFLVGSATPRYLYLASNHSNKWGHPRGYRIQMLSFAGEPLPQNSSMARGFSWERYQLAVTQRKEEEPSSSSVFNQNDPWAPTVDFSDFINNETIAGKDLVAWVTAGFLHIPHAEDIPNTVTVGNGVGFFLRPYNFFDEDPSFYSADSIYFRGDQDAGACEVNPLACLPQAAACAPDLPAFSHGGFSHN
Briefly: Activity evaluation on recombinant human VAP-1 (Amplex Red/HRP-coupled hydrogen peroxide assay, benzylamine substrate). The following applies: read-out: Inhibitory Activity (IC50, nM) human VAP-1. The procedure, abridged: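 Hydrogen peroxide from benzylamine (1 mM) oxidation by human recombinant VAP-1 detected via HRP-coupled Amplex Red (200 uM) fluorescence, kinetic over 1–2 h. Enzyme and compound preincubated 30 min at 37 °C, pH 7.4 phosphate; 8-point dose response, signal-rate decrease versus DMSO control fitted to four-parameter logistic for IC50.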

Test [3] concerns the target T4, recombinant human DAO (diamine oxidase) (Homo sapiens, UniProt P19801).
T4 construct: purchased R&D systems
T4 sequence (P19801 20-751): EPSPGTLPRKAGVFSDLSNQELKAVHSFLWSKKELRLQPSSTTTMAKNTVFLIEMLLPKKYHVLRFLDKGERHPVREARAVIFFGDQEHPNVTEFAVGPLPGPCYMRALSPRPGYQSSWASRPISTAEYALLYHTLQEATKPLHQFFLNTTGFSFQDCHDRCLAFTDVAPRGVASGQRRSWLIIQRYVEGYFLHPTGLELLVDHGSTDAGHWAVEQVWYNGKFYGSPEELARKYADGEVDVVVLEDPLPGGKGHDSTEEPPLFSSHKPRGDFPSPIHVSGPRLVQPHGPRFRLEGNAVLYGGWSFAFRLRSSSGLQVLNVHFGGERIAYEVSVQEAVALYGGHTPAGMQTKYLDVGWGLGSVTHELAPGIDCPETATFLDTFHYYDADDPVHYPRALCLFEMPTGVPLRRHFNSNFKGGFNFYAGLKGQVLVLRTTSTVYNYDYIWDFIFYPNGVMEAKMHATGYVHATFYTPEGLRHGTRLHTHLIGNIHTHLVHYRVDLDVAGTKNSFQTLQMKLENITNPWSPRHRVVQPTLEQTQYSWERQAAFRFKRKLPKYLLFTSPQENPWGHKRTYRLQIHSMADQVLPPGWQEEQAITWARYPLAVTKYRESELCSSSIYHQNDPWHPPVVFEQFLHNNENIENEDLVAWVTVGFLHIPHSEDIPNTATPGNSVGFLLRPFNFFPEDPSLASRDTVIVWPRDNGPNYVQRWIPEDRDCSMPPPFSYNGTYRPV
Briefly: Activity evaluation on recombinant human DAO (Amplex Red/HRP-coupled assay, 1 mM putrescine substrate). The following applies: read-out: Inhibitory Activity (IC50, nM) DAO. The procedure, abridged:
as §1

Setting [4] is: recombinant human VAP-1, 30 min preincubation at 37° C., 1 mM benzylamine.
Where [5] appears, read: recombinant human VAP-1, benzylamine substrate.

On to `Cn1cc(C#Cc2cccc(-n3cnn(CC(CN)=C(F)F)c3=O)n2)cn1` [Example 160, 2-[2-(aminomethyl)-3,3-difluoro-allyl]-4-[6-[2-(1-methylpyrazol-4-yl)ethynyl]-2-pyridyl]-1,2,4-triazol-3-one trifluoroacetate], for which the IC50 was 15600 nM in test [1] (1 mM benzylamine), over 100000 nM in test [2] (0.5 mM tyramine), 1.5 nM at recombinant human VAP-1 (setting [4]) and 5090 nM in test [3] (1 mM putrescine).
Consider `Cc1c(-c2ccc(N3CCNCC3)cc2)cccc1-n1cnn(CC(CN)=C(F)F)c1=O` [Example 254, 2-[2-(aminomethyl)-3,3-difluoro-allyl]-4-[2-methyl-3-(4-piperazin-1-ylphenyl)phenyl]-1,2,4-triazol-3-one Ditrifluoroacetate], for which the IC50 is over 100000 nM in test [1] (1 mM benzylamine substrate), over 100000 nM in test [2] (0.5 mM tyramine substrate), 8 nM at recombinant human VAP-1 (setting [5]) and over 100000 nM in test [3] (1 mM putrescine substrate).
Regarding `NCC(Cn1ncn(Cc2cc(-c3cccc(-c4nc[nH]n4)c3)cs2)c1=O)=C(F)F` [Example 196, 2-[2-(aminomethyl)-3,3-difluoro-allyl]-4-[[4-[3-(1H-1,2,4-triazol-3-yl)phenyl]-2-thienyl]methyl]-1,2,4-triazol-3-one Trifluoroacetate], the IC50 in test [1] (1 mM benzylamine substrate) is 2900 nM; in test [2] (0.5 mM tyramine substrate) it was over 100000 nM; at recombinant human VAP-1 (setting [5]) it was 1.4 nM; in test [3] (1 mM putrescine substrate), 1900 nM.
For `CN(C)c1ccc(-c2ccc(Cn3cnn(CC(CN)=C(F)F)c3=O)s2)cn1` [Example 112, 2-[2-(aminomethyl)-3,3-difluoro-allyl]-4-[[5-[6-(dimethylamino)-3-pyridyl]-2-thienyl]methyl]-1,2,4-triazol-3-one Trifluoroacetate], the IC50 in test [1] (1 mM benzylamine) was 26000 nM; in test [2] (0.5 mM tyramine), over 100000 nM; on recombinant human VAP-1 (setting [4]) it was 0.2 nM; in test [3] (1 mM putrescine) it was over 100000 nM.
As to `CCn1cc(-c2ccc3cc(Cn4cnn(CC(CN)=C(F)F)c4=O)sc3c2)cn1` [Example 204, 2-[2-(aminomethyl)-3,3-difluoro-allyl]-4-[[6-(1-ethylpyrazol-4-yl)benzothiophen-2-yl]methyl]-1,2,4-triazol-3-one Trifluoroacetate], the IC50 in test [1] (1 mM benzylamine substrate) was 89900 nM; in test [2] (0.5 mM tyramine substrate), over 100000 nM; on recombinant human VAP-1 (setting [5]), 0.5 nM; in test [3] (1 mM putrescine substrate), 41200 nM.
`CN1C(=O)CCc2cc(-c3cnc(-n4cnn(CC(CN)=C(F)F)c4=O)c(F)c3)ccc21` [Example 87, 6-[6-[1-[2-(aminomethyl)-3,3-difluoro-allyl]-5-oxo-1,2,4-triazol-4-yl]-5-fluoro-3-pyridyl]-1-methyl-3,4-dihydroquinolin-2-one Trifluoroacetate]: the IC50 in test [1] (1 mM benzylamine) was 1100 nM; in test [2] (0.5 mM tyramine) it was over 100000 nM; on recombinant human VAP-1 (setting [4]), 0.1 nM; in test [3] (1 mM putrescine), 22 nM.
`Cc1cc(-c2ccc(N3CCNCC3)nc2)cnc1-n1cnn(CC(CN)=C(F)F)c1=O` [Example 220, 2-[2-(aminomethyl)-3,3-difluoro-allyl]-4-[3-methyl-5-(6-piperazin-1-yl-3-pyridyl)-2-pyridyl]-1,2,4-triazol-3-one Ditrifluoroacetate]: the IC50 in test [1] (1 mM benzylamine substrate) is over 100000 nM; in test [2] (0.5 mM tyramine substrate), over 100000 nM; at recombinant human VAP-1 (setting [5]), 1.1 nM; in test [3] (1 mM putrescine substrate) it was 11000 nM.
On to `Cc1c(-c2ccc3c(c2)OCO3)cccc1-n1cnn(CC(CN)=C(F)F)c1=O` [Example 257, 2-[2-(aminomethyl)-3,3-difluoro-allyl]-4-[3-(1,3-benzodioxol-5-yl)-2-methyl-phenyl]-1,2,4-triazol-3-one Trifluoroacetate], for which the IC50 in test [1] (1 mM benzylamine substrate) was 101000 nM; in test [2] (0.5 mM tyramine substrate), over 100000 nM; at recombinant human VAP-1 (setting [5]), 2.4 nM; in test [3] (1 mM putrescine substrate), over 100000 nM.
Regarding `CN(C)c1ccc(-c2ccnc(-n3cnn(CC(CN)=C(F)F)c3=O)c2)cn1` [Example 57, 2-[2-(aminomethyl)-3,3-difluoro-allyl]-4-[4-[6-(dimethylamino)-3-pyridyl]-2-pyridyl]-1,2,4-triazol-3-one Trifluoroacetate], the IC50 in test [1] (1 mM benzylamine) is 56400 nM; in test [2] (0.5 mM tyramine), over 100000 nM; on recombinant human VAP-1 (setting [4]), 0.9 nM; in test [3] (1 mM putrescine), 30 nM.
Taken in the same sequence, the figures for `NCC(Cn1ncn(-c2cccc(-c3ccc(C(F)(F)F)nc3)c2)c1=O)=C(F)F` [Example 19, 2-[2-(aminomethyl)-3,3-difluoro-allyl]-4-[3-[6-(trifluoromethyl)-3-pyridyl]phenyl]-1,2,4-triazol-3-one Trifluoroacetate] were over 10000 nM, over 100000 nM, 5.3 nM and 240 nM.
For `CCn1cc(-c2ccc(-c3cnc(-n4cnn(CC(CN)=C(F)F)c4=O)c(C)c3)cc2)cn1` [Example 290, 2-[2-(aminomethyl)-3,3-difluoro-allyl]-4-[5-[4-(1-ethylpyrazol-4-yl)phenyl]-3-methyl-2-pyridyl]-1,2,4-triazol-3-one Trifluoroacetate], the IC50 in test [1] (1 mM benzylamine substrate) is 1190 nM; in test [2] (0.5 mM tyramine substrate), over 100000 nM; at recombinant human VAP-1 (setting [5]) it was 0.7 nM; in test [3] (1 mM putrescine substrate), 2380 nM.

For the origin of these results see patent publication US11168073B2, “3,3-difluoroallylamines or salts thereof and pharmaceutical compositions comprising the same” (YUHAN CORPORATION, priority 2018, dated 2021).
